The values below come from US20230117034A1, “PYRAZOLOTRIAZINES” (Bayer Aktiengesellschaft, priority 2019, published 2023).

Holding throughout (assay type): cell-based
Test [1] has as its target T1, CYCLIN K (nuclear staining in CAL-120 cells) (Homo sapiens, UniProt O75909).
T1 construct: endogenous in cells; host or cells: CAL-120 human breast cancer cells (DSMZ ACC 459)
Nature of the test: CYCLIN K nuclear protein level: immunofluorescence high content analysis (CAL-120). Conditions: 24 h, 50% reduction of nuclear CCNK staining intensity, median, read-out: CYCLIN K degradation IF, DC50-[mol/l] (median). Summed up:
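Readout is automated confocal image analysis of nuclear cyclin K immunofluorescence (Hoechst nuclei) after PFA fixation. Cells were CAL-120, exposed to compound dose-response 24 h at 37 °C; values are DC50 for halving nuclear CCNK signal relative to DMSO and control wells.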

The test system of test [2] is MDA-MB-231, human breast cancer cells. In words: Proliferation assay MDA-MB-231 (crystal violet, 4 days). As to conditions: Homo sapiens, MDA-MB-231, 96 h, MDA-MB-231 cells, median, read-out: Prolif-MDA MB-231, IC50-[mol/l] (median). Summed up:
(§1)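 IC50 from a 4-parameter fit of crystal violet absorbance (595 nm), scaled between the day-of-dosing plate (0%) and vehicle cells (100%). MDA-MB-231 or CAL-120 cells were treated for 4 days with 0.01–10 micromol/L compound in 0.1% DMSO after 24 h attachment.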

For test [3], the system named is CAL-120, human breast adenocarcinoma cells. In words: Proliferation assay CAL-120 (crystal violet, 4 days). Conditions: Homo sapiens, CAL-120, 96 h, CAL-120 cells, median, read-out: Prolif-CAL-120, IC50-[mol/l] (median). Summed up:
as §1

T1 sequence (O75909 whole entry): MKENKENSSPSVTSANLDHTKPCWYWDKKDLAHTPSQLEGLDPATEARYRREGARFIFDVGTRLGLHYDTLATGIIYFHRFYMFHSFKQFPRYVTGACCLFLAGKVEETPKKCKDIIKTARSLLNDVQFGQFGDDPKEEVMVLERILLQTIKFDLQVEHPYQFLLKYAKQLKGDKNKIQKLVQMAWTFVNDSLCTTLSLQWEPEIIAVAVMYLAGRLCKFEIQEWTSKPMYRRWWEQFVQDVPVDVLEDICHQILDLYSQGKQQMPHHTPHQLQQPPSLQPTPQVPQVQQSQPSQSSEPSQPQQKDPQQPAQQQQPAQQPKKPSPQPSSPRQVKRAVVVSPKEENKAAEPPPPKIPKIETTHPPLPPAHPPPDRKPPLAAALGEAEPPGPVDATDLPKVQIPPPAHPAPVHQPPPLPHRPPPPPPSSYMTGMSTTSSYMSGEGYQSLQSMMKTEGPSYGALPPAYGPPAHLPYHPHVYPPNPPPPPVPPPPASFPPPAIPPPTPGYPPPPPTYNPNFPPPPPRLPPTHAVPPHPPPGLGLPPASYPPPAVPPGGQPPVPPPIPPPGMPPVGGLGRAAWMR
T1 sequence (Q9NYV4 whole entry partner): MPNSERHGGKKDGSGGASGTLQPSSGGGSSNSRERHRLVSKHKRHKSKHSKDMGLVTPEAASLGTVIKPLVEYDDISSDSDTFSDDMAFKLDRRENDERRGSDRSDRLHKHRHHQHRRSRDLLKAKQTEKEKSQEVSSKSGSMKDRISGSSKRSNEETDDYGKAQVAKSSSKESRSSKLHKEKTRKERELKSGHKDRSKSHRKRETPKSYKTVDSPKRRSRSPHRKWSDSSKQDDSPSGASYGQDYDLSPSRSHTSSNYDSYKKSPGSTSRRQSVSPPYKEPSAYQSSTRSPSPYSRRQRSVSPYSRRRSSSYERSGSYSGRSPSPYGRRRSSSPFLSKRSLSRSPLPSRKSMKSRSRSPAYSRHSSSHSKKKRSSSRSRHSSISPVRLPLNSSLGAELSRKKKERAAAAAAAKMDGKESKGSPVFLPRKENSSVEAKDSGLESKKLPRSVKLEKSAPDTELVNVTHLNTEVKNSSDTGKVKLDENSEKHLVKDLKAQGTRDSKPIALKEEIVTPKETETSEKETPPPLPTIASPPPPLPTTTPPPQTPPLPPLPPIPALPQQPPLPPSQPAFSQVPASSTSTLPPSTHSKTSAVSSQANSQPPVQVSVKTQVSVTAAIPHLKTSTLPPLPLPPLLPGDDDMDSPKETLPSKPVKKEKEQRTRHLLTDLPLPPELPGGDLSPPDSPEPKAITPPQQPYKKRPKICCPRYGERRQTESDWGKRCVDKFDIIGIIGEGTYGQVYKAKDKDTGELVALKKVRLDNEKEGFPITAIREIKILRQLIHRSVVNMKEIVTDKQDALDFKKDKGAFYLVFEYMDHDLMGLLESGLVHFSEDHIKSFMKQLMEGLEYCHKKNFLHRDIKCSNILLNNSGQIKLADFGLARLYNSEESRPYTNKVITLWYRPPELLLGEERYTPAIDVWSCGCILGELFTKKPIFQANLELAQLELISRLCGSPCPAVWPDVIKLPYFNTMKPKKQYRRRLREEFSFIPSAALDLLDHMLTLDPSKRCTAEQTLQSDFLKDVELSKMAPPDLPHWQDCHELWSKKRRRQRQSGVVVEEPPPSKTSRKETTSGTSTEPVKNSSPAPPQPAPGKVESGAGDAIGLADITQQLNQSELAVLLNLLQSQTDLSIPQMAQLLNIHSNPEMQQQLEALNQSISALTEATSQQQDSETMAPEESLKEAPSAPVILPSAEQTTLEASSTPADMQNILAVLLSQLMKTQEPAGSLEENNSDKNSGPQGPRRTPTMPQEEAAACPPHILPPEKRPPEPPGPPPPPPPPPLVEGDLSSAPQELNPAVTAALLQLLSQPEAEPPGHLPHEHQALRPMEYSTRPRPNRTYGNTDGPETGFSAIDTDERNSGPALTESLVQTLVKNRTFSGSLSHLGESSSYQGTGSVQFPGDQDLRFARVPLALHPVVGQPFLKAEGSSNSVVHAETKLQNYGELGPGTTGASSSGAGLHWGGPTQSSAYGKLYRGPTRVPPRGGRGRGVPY

On to `Fc1ccc2[nH]c(CNc3nc(N4C[C@@H]5CCCN[C@@H]5C4)nc4c(C5CC5)cnn34)nc2c1F` [Example 171, 8-cyclopropyl-N-[(4,5-difluoro-1H-benzimidazol-2-yl)methyl]-2-[(4aS,7aS)-octahydro-6H-pyrrolo[3,4-b]pyridin-6-yl]pyrazolo[1,5-a][1,3,5]triazin-4-amine], for which the DC50 in test [1] was found to be 0.981 nM. In addition, the figures for the IC50 in test [2] and in test [3] were 5.49 nM and 2.66 nM, respectively.

As for `Fc1cccc2[nH]c(CNc3nc(N4C[C@@H]5C[C@H]4CO5)nc4c(C5CC5)cnn34)nc12` [Example 183, 8-cyclopropyl-N-[(4-fluoro-1H-benzimidazol-2-yl)methyl]-2-[(1S,4S)-2-oxa-5-azabicyclo[2.2.1]heptan-5-yl]pyrazolo[1,5-a][1,3,5]triazin-4-amine], the DC50 in test [1] came to 1.64 nM. The IC50 in test [2] stood at 56 nM; in test [3], 27.4 nM.

As for `C[C@@H]1CN(c2nc(NCc3nc4c(F)c(F)ccc4[nH]3)n3ncc(C4CC4)c3n2)C[C@H](C)N1` [Example 170, 8-cyclopropyl-N-[(4,5-difluoro-1H-benzimidazol-2-yl)methyl]-2-[(3R,5S)-3,5-dimethylpiperazin-1-yl]pyrazolo[1,5-a][1,3,5]triazin-4-amine], the DC50 in test [1] was 0.415 nM. Moreover, the IC50 came out at 2.25 nM in test [2] and 1 nM in test [3].

Consider `CN1CCN(c2nc(NCc3nc4ccccc4[nH]3)n3ncc(Br)c3n2)CC1` [Example 18, N-[(1H-benzimidazol-2-yl)methyl]-8-bromo-2-(4-methylpiperazin-1-yl)pyrazolo[1,5-a][1,3,5]triazin-4-amine], for which the DC50 in test [1] worked out at 1.39 nM. Further, the IC50 is 31 nM in test [2] and 32.4 nM in test [3].

On to `CN(CC(C)(C)O)c1nc(NCc2nc3ccccc3[nH]2)n2ncc(Br)c2n1` [Example 238, 1-[(4-{[(1H-benzimidazol-2-yl)methyl]amino}-8-bromopyrazolo[1,5-a][1,3,5]triazin-2-yl)(methyl)amino]-2-methylpropan-2-ol], for which, in test [1], the DC50 was determined as 4.19 nM. Moreover, the IC50 stood at 40.1 nM in test [2] and 36.3 nM in test [3].

As to `Fc1ccc2[nH]c(CNc3nc(N4CCNCC4)nc4c(C5CC5)cnn34)nc2c1F` [Example 174, 8-cyclopropyl-N-[(4,5-difluoro-1H-benzimidazol-2-yl)methyl]-2-(piperazin-1-yl)pyrazolo[1,5-a][1,3,5]triazin-4-amine], the DC50 in test [1] turned out to be 0.0976 nM. The IC50 was determined as 2.19 nM in test [2] and 1 nM in test [3].

Consider `O[C@H]1C[C@@H](Nc2nc(NCc3nc4ccccc4[nH]3)n3ncc(Br)c3n2)C1` [Example 234, cis-3-[(4-{[(1H-benzimidazol-2-yl)methyl]amino}-8-bromopyrazolo[1,5-a][1,3,5]triazin-2-yl)amino]cyclobutan-1-ol], for which the DC50 in test [1] came to 1.74 nM. The IC50 in test [2] was 59.9 nM; in test [3] it was 31.3 nM.

As for `Cc1ccc2[nH]c(CNc3nc(N4C[C@H]5C[C@@H]4CO5)nc4c(C5CC5)cnn34)nc2c1` [Example 196, 8-cyclopropyl-N-[(5-methyl-1H-benzimidazol-2-yl)methyl]-2-[(1R,4R)-2-oxa-5-azabicyclo[2.2.1]heptan-5-yl]pyrazolo[1,5-a][1,3,5]triazin-4-amine], the DC50 in test [1] was 2.29 nM. Also, the figures for the IC50 in test [2] and in test [3] were 12.9 nM and 8.05 nM, respectively.

As for `Brc1cnn2c(NCc3nc4ccccc4[nH]3)nc(N3CC4CCC(C3)N4)nc12` [Example 232, N-(1H-benzimidazol-2-ylmethyl)-8-bromo-2-(3,8-diazabicyclo[3.2.1]octan-3-yl)pyrazolo[1,5-a][1,3,5]triazin-4-amine], in test [1], the DC50 amounted to 1.06 nM. Also, the IC50 is 17.9 nM in test [2] and 5.25 nM in test [3].

Consider `Fc1ccc2[nH]c(CNc3nc(N4CCOCC4)nc4c(C5CC5)cnn34)nc2c1F` [Example 172, 8-cyclopropyl-N-[(4,5-difluoro-1H-benzimidazol-2-yl)methyl]-2-(morpholin-4-yl)pyrazolo[1,5-a][1,3,5]triazin-4-amine], for which the DC50 in test [1] came out at 0.894 nM. The IC50 stood at 5.35 nM in test [2] and 2.43 nM in test [3].

As to `Brc1cnn2c(NCc3nc4ccccc4[nH]3)nc(N3CCC4(CCCN4)C3)nc12` (stereo not drawn) [Example 215, N-(1H-benzimidazol-2-ylmethyl)-8-bromo-2-(1,7-diazaspiro[4.4]nonan-7-yl)pyrazolo[1,5-a][1,3,5]triazin-4-amine], in test [1], the DC50 was 6.49 nM. In addition, the IC50 was 129 nM in test [2] and 34.3 nM in test [3].

As to `Cc1ccc2[nH]c(CNc3nc(N4C[C@@H]5CCCN[C@@H]5C4)nc4c(C5CC5)cnn34)nc2c1` [Example 195, 8-cyclopropyl-N-[(5-methyl-1H-benzimidazol-2-yl)methyl]-2-[(4aS,7aS)-octahydro-6H-pyrrolo[3,4-b]pyridin-6-yl]pyrazolo[1,5-a][1,3,5]triazin-4-amine], the DC50 in test [1] was 1.29 nM. For the same compound, the IC50 in test [2] was found to be 4.8 nM; in test [3] it was 4.46 nM.

Take `Cc1ccc2[nH]c(CNc3nc(N4C[C@@H]5CCCN[C@@H]5C4)nc4c(Br)cnn34)nc2c1` [Example 203, 8-bromo-N-[(5-methyl-1H-benzimidazol-2-yl)methyl]-2-[(4aS, 7aS)-octahydro-6H-pyrrolo[3,4-b]pyridin-6-yl]pyrazolo[1,5-a][1,3,5]triazin-4-amine]: the DC50 in test [1] stood at 0.119 nM. The results for the IC50 in test [2] and in test [3] were 1.69 nM and 1.02 nM, respectively.

`Fc1cccc2[nH]c(CNc3nc(N4C[C@@H]5CCCN[C@@H]5C4)nc4c(C5CC5)cnn34)nc12` [Example 187, 8-cyclopropyl-N-[(4-fluoro-1H-benzimidazol-2-yl)methyl]-2-[(4aS,7aS)-octahydro-6H-pyrrolo[3,4-b]pyridin-6-yl]pyrazolo[1,5-a][1,3,5]triazin-4-amine]: in test [1], the DC50 was 0.369 nM. Also, the results for the IC50 in test [2] and in test [3] were 13.8 nM and 1.1 nM, respectively.

Regarding `OC[C@@H]1CCCCN1c1nc(NCc2nc3c(F)c(F)ccc3[nH]2)n2ncc(C3CC3)c2n1` [Example 184, [(2S)-1-(8-cyclopropyl-4-{[(4,5-difluoro-1H-benzimidazol-2-yl)methyl]amino}pyrazolo[1,5-a][1,3,5]triazin-2-yl)piperidin-2-yl]methanol], the DC50 in test [1] came to 0.929 nM. Further, the IC50 in test [2] was 10.3 nM; in test [3], 9.27 nM.

Consider `COc1ccc2[nH]c(CNc3nc(N4C[C@@H](C)N[C@@H](C)C4)nc4c(Br)cnn34)nc2c1` [Example 205, 8-bromo-2-[(3R,5S)-3,5-dimethylpiperazin-1-yl]-N-[(5-methoxy-1 H-benzimidazol-2-yl)methyl]pyrazolo[1,5-a][1,3,5]triazin-4-amine], for which the DC50 in test [1] stood at 0.279 nM. In addition, the IC50 in test [2] amounted to 4.2 nM; in test [3], 1.73 nM.

In the case of `COc1cccc2[nH]c(CNc3nc(N4CCN(C)CC4)nc4c(C5CC5)cnn34)nc12` [Example 197, 8-cyclopropyl-N-[(4-methoxy-1H-benzimidazol-2-yl)methyl]-2-(4-methylpiperazin-1-yl)pyrazolo[1,5-a][1,3,5]triazin-4-amine], the DC50 in test [1] stood at 0.763 nM. Moreover, the IC50 in test [2] was determined as 15.6 nM; in test [3] it was 4.99 nM.

As for `CN1C[C@H]2C[C@@H]1CN2c1nc(NCc2nc3ccccc3[nH]2)n2ncc(Br)c2n1` [Example 218, N-[(1H-benzimidazol-2-yl)methyl]-8-bromo-2-[(1R,4R)-5-methyl-2,5-diazabicyclo[2.2.1]heptan-2-yl]pyrazolo[1,5-a][1,3,5]triazin-4-amine], the DC50 in test [1] is 0.685 nM. Further, the IC50 was found to be 35.7 nM in test [2] and 21.1 nM in test [3].

As for `C[C@@H]1CN(c2nc(NCc3nc4cc(F)ccc4[nH]3)n3ncc(C4CC4)c3n2)C[C@H](C)N1` [Example 175, 8-cyclopropyl-2-[(3R,5S)-3,5-dimethylpiperazin-1-yl]-N-[(5-fluoro-1H-benzimidazol-2-yl)methyl]pyrazolo[1,5-a][1,3,5]triazin-4-amine], the DC50 in test [1] came to 0.147 nM. Further, the IC50 in test [2] worked out at 3.26 nM; in test [3], 1.15 nM.

Take `CCNc1nc(NCc2nc3ccccc3[nH]2)n2ncc(Br)c2n1` [Example 227, N4-(1H-benzimidazol-2-ylmethyl)-8-bromo-N2-ethyl-pyrazolo[1,5-a][1,3,5]triazine-2,4-diamine]: the DC50 in test [1] stood at 2.7 nM. The IC50 in test [2] worked out at 57.9 nM; in test [3], 44.2 nM.

As to `CC(C)(O)CNc1nc(NCc2nc3ccccc3[nH]2)n2ncc(Br)c2n1` [Example 229, 1-[(4-{[(1H-benzimidazol-2-yl)methyl]amino}-8-bromopyrazolo[1,5-a][1,3,5]triazin-2-yl)amino]-2-methylpropan-2-ol], the DC50 in test [1] came out at 0.39 nM. Besides, the IC50 in test [2] is 42.8 nM; in test [3], 39.4 nM.

Take `CN1CC2CN(c3nc(NCc4nc5ccccc5[nH]4)n4ncc(Br)c4n3)CC2C1` (stereo not drawn) [Example 240, N-(1H-benzimidazol-2-ylmethyl)-8-bromo-2-(2-methyl-1,3,3a,4,6,6a-hexahydropyrrolo[3,4-c]pyrrol-5-yl)pyrazolo[1,5-a][1,3,5]triazin-4-amine]: in test [1], the DC50 was 1.09 nM. Further, the IC50 worked out at 38.6 nM in test [2] and 23.7 nM in test [3].
